Measurements from ChEMBL document CHEMBL5715949, “Discovery of a selective irreversible BMX inhibitor for prostate cancer” (ACS Chem Biol, 2013).
The source made the active and inactive calls. No cut-off for these calls is given here.

Assays:
[1] = target: Myosin light chain kinase 2, skeletal/cardiac muscle (Homo sapiens) (UniProt Q9H1R3); test: Inhibition of MYLK2 (unknown origin) assessed as remaining activity at 1 uM by Kinome scan method relative to control
[2] = target: TGF-beta receptor type-1 (Homo sapiens) (UniProt P36897); test: Inhibition of TGFBR1 (unknown origin) assessed as remaining activity at 1 uM by Kinome scan method relative to control
[3] = target: Vascular endothelial growth factor receptor 2 (Homo sapiens) (UniProt P35968); test: Inhibition of VEGFR2 (unknown origin) assessed as remaining activity at 1 uM by Kinome scan method relative to control
Vascular endothelial growth factor receptor 2 (Homo sapiens), sequence (P35968 whole entry, the tested form may be a part): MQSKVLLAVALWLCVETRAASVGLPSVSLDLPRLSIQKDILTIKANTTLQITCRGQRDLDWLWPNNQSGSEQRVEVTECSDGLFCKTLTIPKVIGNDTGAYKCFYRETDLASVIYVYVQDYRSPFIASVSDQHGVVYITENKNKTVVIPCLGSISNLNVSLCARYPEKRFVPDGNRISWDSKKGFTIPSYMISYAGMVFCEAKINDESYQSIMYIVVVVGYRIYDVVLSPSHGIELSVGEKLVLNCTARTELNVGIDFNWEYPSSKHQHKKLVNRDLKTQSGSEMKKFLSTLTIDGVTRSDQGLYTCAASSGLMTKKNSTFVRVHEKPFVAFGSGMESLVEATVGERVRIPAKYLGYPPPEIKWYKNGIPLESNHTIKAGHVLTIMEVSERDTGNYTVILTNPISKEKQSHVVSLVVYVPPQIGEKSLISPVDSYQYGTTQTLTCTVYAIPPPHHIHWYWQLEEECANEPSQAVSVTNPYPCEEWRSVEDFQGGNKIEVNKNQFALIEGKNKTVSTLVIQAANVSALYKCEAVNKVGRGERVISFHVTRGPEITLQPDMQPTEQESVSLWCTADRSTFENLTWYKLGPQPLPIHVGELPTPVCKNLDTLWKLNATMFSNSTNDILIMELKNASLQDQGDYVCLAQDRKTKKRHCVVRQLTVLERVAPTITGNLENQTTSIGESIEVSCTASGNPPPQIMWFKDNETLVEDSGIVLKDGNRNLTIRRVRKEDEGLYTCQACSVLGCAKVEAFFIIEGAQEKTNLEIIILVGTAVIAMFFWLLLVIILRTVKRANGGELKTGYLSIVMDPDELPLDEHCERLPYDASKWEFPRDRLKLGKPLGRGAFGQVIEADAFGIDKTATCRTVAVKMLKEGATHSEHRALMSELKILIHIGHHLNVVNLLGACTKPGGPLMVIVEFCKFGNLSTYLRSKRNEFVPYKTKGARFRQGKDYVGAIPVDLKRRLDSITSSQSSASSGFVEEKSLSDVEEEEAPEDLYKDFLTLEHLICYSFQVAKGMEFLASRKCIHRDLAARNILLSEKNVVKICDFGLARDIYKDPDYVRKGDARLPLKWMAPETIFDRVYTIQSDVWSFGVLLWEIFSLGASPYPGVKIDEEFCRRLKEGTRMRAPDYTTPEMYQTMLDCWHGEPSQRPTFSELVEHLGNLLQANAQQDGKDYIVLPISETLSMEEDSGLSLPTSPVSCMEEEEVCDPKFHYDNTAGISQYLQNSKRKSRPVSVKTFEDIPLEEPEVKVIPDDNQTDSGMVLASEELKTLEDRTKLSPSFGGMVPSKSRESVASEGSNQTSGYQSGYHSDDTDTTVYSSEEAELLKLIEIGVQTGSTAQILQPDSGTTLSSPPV

BaF3 [4] = test: Antiproliferative activity against mouse BaF3 cells expressing TEL-fused BLK assessed growth inhibition incubated for 2 to 5 days by CellTiter-Glo assay; type: functional; settings: time 2-5 day
[5] = target: Cyclin-dependent kinase-like 2 (Homo sapiens) (UniProt Q92772); test: Inhibition of CDKL2 (unknown origin) assessed as remaining activity at 1 uM by Kinome scan method relative to control
RV-1 [6] = test: Down regulation of BMX protein expression in human RV-1 cells expressing wild type BMX at 5 uM incubated for 72 hrs by western blot analysis; type: functional, cell-based
[7] = target: cAMP-dependent protein kinase catalytic subunit alpha (Homo sapiens) (UniProt P17612); test: Inhibition of PKAC-alpha (unknown origin) assessed as remaining activity at 1 uM by Kinome scan method relative to control
[8] = target: Receptor tyrosine-protein kinase erbB-4 (Homo sapiens) (UniProt Q15303); test: Inhibition of ERBB4 (unknown origin) assessed as remaining activity at 1 uM by Kinome scan method relative to control
[9] = target: Hormonally up-regulated neu tumor-associated kinase (Homo sapiens) (UniProt P57058); test: Inhibition of HUNK (unknown origin) assessed as remaining activity at 1 uM by Kinome scan method relative to control
[10] = target: Serine/threonine-protein kinase STK11 (Homo sapiens) (UniProt Q15831); test: Inhibition of LKB1 (unknown origin) assessed as remaining activity at 1 uM by Kinome scan method relative to control
Serine/threonine-protein kinase STK11 (Homo sapiens), sequence (Q15831 whole entry, canonical isoform): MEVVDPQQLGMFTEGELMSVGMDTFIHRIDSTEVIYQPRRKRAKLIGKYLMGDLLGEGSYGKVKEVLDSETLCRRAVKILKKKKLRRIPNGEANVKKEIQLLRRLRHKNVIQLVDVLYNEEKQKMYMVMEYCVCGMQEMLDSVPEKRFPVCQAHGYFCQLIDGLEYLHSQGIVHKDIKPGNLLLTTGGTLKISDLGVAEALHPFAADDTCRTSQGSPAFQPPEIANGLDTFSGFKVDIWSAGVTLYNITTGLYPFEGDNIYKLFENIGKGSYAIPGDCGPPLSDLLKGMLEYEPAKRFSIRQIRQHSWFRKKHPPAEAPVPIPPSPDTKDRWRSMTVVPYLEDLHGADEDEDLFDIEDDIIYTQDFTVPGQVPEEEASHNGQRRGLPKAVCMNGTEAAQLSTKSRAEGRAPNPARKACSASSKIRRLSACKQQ

[11] = target: Phosphorylase b kinase gamma catalytic chain, liver/testis isoform (Homo sapiens) (UniProt P15735); test: Inhibition of PHKG2 (unknown origin) assessed as remaining activity at 1 uM by Kinome scan method relative to control
RV-1 [12] = test: Induction of apoptosis in human RV-1 cells at 2.5 uM incubated for 5 days in presence of […] by propidium iodide staining based flow cytometric analysis; type: functional, cell-based; settings: time 5.0 day
RV-1 [13] = test: Antiproliferative activity against human RV-1 cells assessed as reduction in cell viability at 500 to 2500 nM incubated for 5 days in presence of MK2206 by CellTiter-Glo assay; type: functional, cell-based; settings: dose 500-2500 nM, time 5.0 day
[14] = Down regulation of BMX protein expression in human RV-1 cells expressing wild type BMX assessed protein expression level at 2.5 uM pre incubated for 4 hrs followed by compound wash out and additon of CHX and measured after 16 hrs by immunoblot analysis (reference value: 0.98 to 1.01); type: functional
[15] = Induction of cell cycle arrest in human RV-1 cells assessed as accumulation of cells at G1 phase at 2.5 uM incubated for 5 days by propidium iodide staining based flow cytometric analysis (reference value: 59.7 %); type: functional; settings: time 5 day
[16] = target: Tyrosine-protein kinase Fgr (Homo sapiens) (UniProt P09769); test: Inhibition of FGR (unknown origin) assessed as remaining activity at 1 uM by Kinome scan method relative to control
[17] = target: cAMP-dependent protein kinase catalytic subunit beta (Homo sapiens) (UniProt P22694); test: Inhibition of PKAC-beta (unknown origin) assessed as remaining activity at 1 uM by Kinome scan method relative to control
[18] = tested on: Proto-oncogene tyrosine-protein kinase receptor Ret (Homo sapiens), P07949 [V804L]; test: Inhibition of RET V804L (unknown origin) assessed as remaining activity at 1 uM by Kinome scan method relative to control
RV-1 [19] = test: Inhibition of MAPK signalling pathway in human RV-1 cells assessed as decrease in ERK1/2 phosphorylation at T202/204 residue at 2.5 uM incubated for 4 hrs by immunoblot analysis; type: cell-based
BaF3 [20] = test: Antiproliferative activity against mouse BaF3 cells expressing TEL-fused BMX Cys496Ser assessed growth inhibition incubated for 2 to 5 days by CellTiter-Glo assay; type: functional, cell-based
[21] = target: BMP-2-inducible protein kinase (Homo sapiens) (UniProt Q9NSY1); test: Inhibition of BIKE (unknown origin) assessed as remaining activity at 1 uM by Kinome scan method relative to control
[22] = target: Activin receptor type-2A (Homo sapiens) (UniProt P27037); test: Inhibition of ACVR2A (unknown origin) assessed as remaining activity at 1 uM by Kinome scan method relative to control
Activin receptor type-2A (Homo sapiens), sequence (P27037 whole entry): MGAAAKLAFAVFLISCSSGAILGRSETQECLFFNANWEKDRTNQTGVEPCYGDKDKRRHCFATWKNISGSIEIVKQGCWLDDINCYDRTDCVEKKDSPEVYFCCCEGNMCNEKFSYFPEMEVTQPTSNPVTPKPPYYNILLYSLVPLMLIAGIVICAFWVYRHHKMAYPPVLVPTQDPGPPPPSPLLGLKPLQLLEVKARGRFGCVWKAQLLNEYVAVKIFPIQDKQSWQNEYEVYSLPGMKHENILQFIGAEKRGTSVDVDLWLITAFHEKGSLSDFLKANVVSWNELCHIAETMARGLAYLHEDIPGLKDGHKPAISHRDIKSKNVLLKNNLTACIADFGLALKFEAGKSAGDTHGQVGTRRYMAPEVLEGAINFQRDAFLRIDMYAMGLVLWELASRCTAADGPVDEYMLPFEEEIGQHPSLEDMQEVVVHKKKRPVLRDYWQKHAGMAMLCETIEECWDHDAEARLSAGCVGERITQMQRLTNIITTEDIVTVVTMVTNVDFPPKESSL

[23] = target: Tyrosine-protein kinase Yes (Homo sapiens) (UniProt P07947); test: Inhibition of YES (unknown origin) assessed as remaining activity at 1 uM by Kinome scan method relative to control
Tyrosine-protein kinase Yes (Homo sapiens), sequence (P07947 2-543 limits assumed): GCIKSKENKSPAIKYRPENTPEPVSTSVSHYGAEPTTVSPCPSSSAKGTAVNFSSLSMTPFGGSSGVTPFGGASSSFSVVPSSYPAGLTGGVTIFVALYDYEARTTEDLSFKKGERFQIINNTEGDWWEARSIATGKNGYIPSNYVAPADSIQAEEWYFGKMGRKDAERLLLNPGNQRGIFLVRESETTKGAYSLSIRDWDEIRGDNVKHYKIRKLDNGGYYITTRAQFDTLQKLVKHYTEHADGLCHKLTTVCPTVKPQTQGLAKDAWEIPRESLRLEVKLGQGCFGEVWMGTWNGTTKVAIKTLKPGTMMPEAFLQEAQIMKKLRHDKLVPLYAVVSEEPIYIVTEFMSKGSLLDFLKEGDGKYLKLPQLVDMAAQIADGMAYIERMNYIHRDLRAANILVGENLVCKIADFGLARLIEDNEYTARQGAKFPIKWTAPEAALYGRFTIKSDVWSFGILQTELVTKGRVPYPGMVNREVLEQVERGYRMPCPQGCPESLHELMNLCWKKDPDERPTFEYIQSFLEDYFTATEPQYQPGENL

[24] = Antiproliferative activity against human RV-1 cells assessed growth inhibition incubated for 2 to 5 days by CellTiter-Glo assay; type: functional; settings: time 2-5 day
[25] = target: Platelet-derived growth factor receptor beta (Homo sapiens) (UniProt P09619); test: Inhibition of PDGFRbeta (unknown origin) assessed as remaining activity at 1 uM by Kinome scan method relative to control
Platelet-derived growth factor receptor beta (Homo sapiens), sequence (P09619 whole entry): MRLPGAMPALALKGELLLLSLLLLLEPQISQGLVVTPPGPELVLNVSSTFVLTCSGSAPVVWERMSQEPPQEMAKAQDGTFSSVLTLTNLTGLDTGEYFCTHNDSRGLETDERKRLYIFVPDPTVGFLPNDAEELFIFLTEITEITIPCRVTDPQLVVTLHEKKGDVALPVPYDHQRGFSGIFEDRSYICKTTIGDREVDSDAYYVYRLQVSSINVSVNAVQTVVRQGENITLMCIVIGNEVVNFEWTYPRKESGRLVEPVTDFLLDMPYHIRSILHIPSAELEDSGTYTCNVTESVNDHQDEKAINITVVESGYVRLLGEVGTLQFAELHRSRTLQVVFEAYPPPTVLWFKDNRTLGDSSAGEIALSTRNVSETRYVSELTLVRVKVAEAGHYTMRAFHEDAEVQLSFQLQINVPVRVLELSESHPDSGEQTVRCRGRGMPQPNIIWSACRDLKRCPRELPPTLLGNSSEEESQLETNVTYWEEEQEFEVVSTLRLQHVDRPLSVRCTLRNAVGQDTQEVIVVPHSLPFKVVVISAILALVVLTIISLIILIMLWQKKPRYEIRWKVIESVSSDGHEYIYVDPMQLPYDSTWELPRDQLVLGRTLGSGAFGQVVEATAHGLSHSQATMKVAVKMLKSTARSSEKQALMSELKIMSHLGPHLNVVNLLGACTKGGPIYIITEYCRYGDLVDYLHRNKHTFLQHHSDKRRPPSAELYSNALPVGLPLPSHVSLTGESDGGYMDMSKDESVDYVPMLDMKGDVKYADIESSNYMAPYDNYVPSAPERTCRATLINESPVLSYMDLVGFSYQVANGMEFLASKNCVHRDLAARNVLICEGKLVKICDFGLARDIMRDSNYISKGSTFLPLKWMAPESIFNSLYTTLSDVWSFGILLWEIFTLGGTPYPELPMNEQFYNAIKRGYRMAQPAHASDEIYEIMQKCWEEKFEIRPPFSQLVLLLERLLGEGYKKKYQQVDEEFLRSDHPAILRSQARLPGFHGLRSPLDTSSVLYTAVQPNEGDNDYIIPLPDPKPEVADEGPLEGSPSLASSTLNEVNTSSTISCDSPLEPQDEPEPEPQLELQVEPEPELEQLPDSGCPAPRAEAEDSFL

[26] = target: cGMP-dependent protein kinase 1 (Homo sapiens) (UniProt Q13976); test: Inhibition of PRKG1 (unknown origin) assessed as remaining activity at 1 uM by Kinome scan method relative to control
[27] = target: Serine/threonine-protein kinase 16 (Homo sapiens) (UniProt O75716); test: Inhibition of STK16 (unknown origin) assessed as remaining activity at 1 uM by Kinome scan method relative to control
RV-1 [28] = test: Down regulation of BMX protein expression in human RV-1 cells expressing BMX C496S mutant at 5 uM incubated for 72 hrs by western blot analysis; type: functional, cell-based
[29] = target: Proto-oncogene tyrosine-protein kinase ROS (Homo sapiens) (UniProt P08922); test: Inhibition of ROS1 (unknown origin) assessed as remaining activity at 1 uM by Kinome scan method relative to control
[30] = target: Tyrosine-protein kinase CSK (Homo sapiens) (UniProt P41240); test: Inhibition of CSK (unknown origin) assessed as remaining activity at 1 uM by Kinome scan method relative to control
RV-1 [31] = test: Antiproliferative activity against human RV-1 cells assessed as reduction in cell viability at 500 to 2500 nM incubated for 5 days in presence of gefitinib by CellTiter-Glo assay; type: functional, cell-based; settings: dose 500-2500 nM, time 5.0 day
[32] = target: Cyclin-dependent kinase 8 (Homo sapiens) (UniProt P49336); test: Inhibition of CDK8 (unknown origin) assessed as remaining activity at 1 uM by Kinome scan method relative to control
Cyclin-dependent kinase 8 (Homo sapiens), sequence (P49336 whole entry): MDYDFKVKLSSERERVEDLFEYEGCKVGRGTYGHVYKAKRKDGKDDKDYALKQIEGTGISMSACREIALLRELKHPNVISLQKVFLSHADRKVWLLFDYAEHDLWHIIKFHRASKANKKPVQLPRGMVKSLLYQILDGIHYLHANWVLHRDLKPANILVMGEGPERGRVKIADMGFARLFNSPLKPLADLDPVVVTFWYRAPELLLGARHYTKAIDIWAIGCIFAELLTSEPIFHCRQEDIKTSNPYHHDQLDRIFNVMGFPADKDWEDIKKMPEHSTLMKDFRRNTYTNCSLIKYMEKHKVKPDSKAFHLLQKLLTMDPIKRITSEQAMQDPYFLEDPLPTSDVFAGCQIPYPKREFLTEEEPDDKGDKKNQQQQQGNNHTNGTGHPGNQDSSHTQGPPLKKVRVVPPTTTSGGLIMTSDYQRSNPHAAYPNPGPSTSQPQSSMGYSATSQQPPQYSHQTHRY

[33] = target: Myotonin-protein kinase (Homo sapiens) (UniProt Q09013); test: Inhibition of DMPK (unknown origin) assessed as remaining activity at 1 uM by Kinome scan method relative to control

Myosin light chain kinase 2, skeletal/cardiac muscle (Homo sapiens), sequence (Q9H1R3 whole entry): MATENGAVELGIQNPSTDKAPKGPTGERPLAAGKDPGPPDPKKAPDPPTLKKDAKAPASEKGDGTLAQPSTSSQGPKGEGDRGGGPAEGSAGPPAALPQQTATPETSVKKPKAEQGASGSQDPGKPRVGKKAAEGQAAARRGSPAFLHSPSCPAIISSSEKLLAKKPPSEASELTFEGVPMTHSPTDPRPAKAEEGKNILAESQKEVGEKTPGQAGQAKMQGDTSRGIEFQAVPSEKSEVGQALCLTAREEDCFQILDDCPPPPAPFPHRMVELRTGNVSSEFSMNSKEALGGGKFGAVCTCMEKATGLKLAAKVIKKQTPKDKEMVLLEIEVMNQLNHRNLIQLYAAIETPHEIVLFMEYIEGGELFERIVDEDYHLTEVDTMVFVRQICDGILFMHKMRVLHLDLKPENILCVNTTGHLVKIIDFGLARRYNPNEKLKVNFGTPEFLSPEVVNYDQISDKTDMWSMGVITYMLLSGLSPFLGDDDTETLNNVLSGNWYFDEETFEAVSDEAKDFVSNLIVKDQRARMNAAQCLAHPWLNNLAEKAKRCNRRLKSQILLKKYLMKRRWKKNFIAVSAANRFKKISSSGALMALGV

C=CC(=O)Nc1cc(-n2c(=O)ccc3cnc4ccc(-c5ccc(NS(C)(=O)=O)cc5)cc4c32)ccc1C
Activity [1]: 93% | Activity [2]: 97% | Activity [3]: 97% | GI50 (BaF3 [4]): 3.64 µM | Activity [5]: 93% | Activity (RV-1 [6]): Active | Activity [7]: 83% | Activity [8]: 78% | Activity [9]: 85% | Activity [10]: 79% | Activity [11]: 74% | Activity (RV-1 [12]): Active | Activity (RV-1 [13]): Active | Activity [14]: 0.28 | Activity [15]: 70.3% | Activity [16]: 72% | Activity [17]: 79% | Activity [18]: 79% | inhibition (RV-1 [19]): inactive | IC50 (BaF3 [20]): > 10 µM | Activity [21]: 76% | Activity [22]: 94% | Activity [23]: 74% | GI50 [24]: 2.53 µM | Activity [25]: 76% | Activity [26]: 87% | Activity [27]: 98% | Activity (RV-1 [28]): Active | Activity [29]: 81% | Activity [30]: 99% | Activity (RV-1 [31]): Active | Activity [32]: 76% | Activity [33]: 91%
